From article PMC8347148, “An Evaluation of Human Induced Pluripotent Stem Cells to Test for Cardiac Developmental Toxicity” (International Journal of Molecular Sciences, 2021)
In brackets after ≈: the same amount, converted by molar mass. Read-outs that look alike come from different tables or passages of the source.

Assays:
[1] = maximum plasma concentration, human exposure; cited from earlier work
[2] = tested on: differentiating hiPSCs (hiPSC-cardiomyocytes); assay: hiPSC-EST cardiac viability assay (MTT); assay type: cell-based, human; conditions: for IC50: Homo sapiens, 600 h
Method: (§1) 5-flurorouracil (5-FU), all-trans retinoic acid (atRA), and penicillin G (PenG) were selected from a subset of chemicals used in the original EST validation study. 5-FU and atRA were selected as positive test compounds due to their established embryotoxic potential while PenG was used as a negative control. All chemicals were purchased from Sigma. Stock solutions were prepared in DMSO and filtered through a 0.2 micron Acrodisc® PSF Syringe Filter (Pall Corporation, Port Washington, NY, USA), aliquoted into sterile microcentrifuge tubes and stored at −20 °C until use. Test chemicals were serially diluted to final concentrations in differentiation media. Cardiogenic cultures were treated with designated chemicals (or solvent only) through day 25 of differentiation and hFF cultures were treated with each compound for a 25 day duration period. Compounds were replenished with each medium change.
(§2) A University of Kentucky smoking machine was used to produce smoke extract solutions from commercially available conventional Marlboro Red 100 brand cigarettes as previously described. The smoking machine took a 2.2 s puff of mainstream (MS) smoke every minute. Smoke solution concentrations were made in puff equivalents (PE), which are the number of cigarette puffs dissolved in 1 mL of medium. MS smoke solutions were produced by pulling 30 puffs of MS smoke through 10 mL of DMEM. Resulting 3 PE smoke extracts were filtered through a 0.2 micron Acrodisc® PSF Syringe Filter (Pall Corporation, Port Washington, NY, USA), aliquoted into sterile microcentrifuge tubes, and stored at −80 °C until use. Serial dilutions were performed in differentiation medium to reach desired final exposure concentrations. Cardiogenic cultures were treated with smoke solutions through 25 days of differentiation. Smoke solutions were replenished with each medium change.
(§3) A 10% (w/v) Camel Snus extract was prepared as previously described. Ten grams of Snus was added to 85 mL of DMEM and allowed to incubate at 37 °C for 2 h. This initial extract solution was centrifuged for 10 min at 4500× g. Supernatant from the first round of centrifugation was then centrifuged again at 13,000× g for 1 h. The resulting supernatant was collected and pH adjusted to 7.4. 15 mL of FBS was added to the pH-adjusted Snus extract to produce a 10% stock solution of Snus tobacco extract (STE). The stock solution was then sterile-filtered with a 0.22 μm vacuum filter system. STE was aliquoted into sterile microcentrifuge tubes and stored at −80 °C until use. Serial dilutions were performed in differentiation medium to reach desired final exposure concentrations. Cardiogenic cultures were treated with STE through 25 days of differentiation. STE was replenished with each medium change.
Cardiomyocyte survival following concurrent exposure to each compound was evaluated by 3-[4,5-dimethylthiazol-2-yl]-2,5-diphenylterazolium bromide (MTT) assay from three independent differentiations each carried out in technical quintuplicate as previously described. On day 25 of differentiation, cells were incubated with MTT (5 mg/mL) for 2 h at 37 °C. MTT supernatant was removed and replaced with a desorb solution of 0.7% SDS in 2-propanol. The absorbance of the solution was measured at 570 nm in an iMark™ microplate reader (Bio-Rad) with 655 nm as a reference wavelength. Here, mitochondrial dehydrogenase activity on the MTT in solution is directly proportional to a blue-purple product that is detected at 570 nm.
Half-maximal inhibitory compound doses of differentiation (ID50) and cytotoxicity (IC50) were determined from concentration-response curves using GraphPad Prism.

[3] = tested on: RIV9 hiPSC-derived cardiomyocytes; assay: hiPSC-EST cardiac contractile assay (count of contracting cardiomyocyte clusters); assay type: cell-based, human; conditions: for doses with reduced contractile activity / incidence: Figure 3; for hiPSC ID50: day 25, 50% inhibition of functional (contracting) cardiomyocytes vs control
Method: The hiPSC cell line RIV9 was obtained from the Stem Cell Core at the University of California, Riverside. hiPSCs were seeded on Matrigel (Corning, Glendale, AZ, USA)-coated tissue culture plates and maintained in a pluripotent state in mTeSR® medium (Stem Cell Technologies, Seattle, WA, USA). Cells were cultured under a humidified atmosphere of 5% CO2 at 37 °C and passaged for maintenance or to seed for experiments approximately every 5 days as previously described.
After cells reached 70% confluency (designated day 0), the medium was changed to control differentiation medium supplemented with 0.06 mg/mL ascorbic acid (Sigma-Aldrich, St. Louis, MO, USA) to induce cardiac differentiation. Control differentiation medium was comprised of Dulbecco’s modified Eagle’s medium (DMEM with 4.5 g/L glucose, L-glutamine and sodium pyruvate; Corning) supplemented with 18% FBS (PAA), 0.8% penicillin/streptomycin (10,000 units/10,000 units, Gibco, ThermoFisher Scientific, Grand Island, NY, USA), 0.12% non-essential amino acids (NEAA; Gibco), and 0.1 mM β-mercaptoethanol (Gibco). Cultures were cultured in differentiation media for 25 days, starting from day 0.
as §1, §2
as §3, with “change. […]” for “change.”

[4] = read-out: hiPSC IC50, day 25, MTT, 50% inhibition of viable cells vs control
[5] = day 25, MTT, 50% inhibition of viable cells vs control

For CC1=C(/C=C/C(C)=C/C=C/C(C)=C/C(=O)O)C(C)(C)CCC1 [All-Trans Retinoic Acid, all-trans retinoic acid], the Cmax [1] is listed as 0.155–0.294 [13] μg/mL, the IC50 ([2]; day 25, MTT, 50% inhibition of viable cells vs control, read-out: hiPSC IC50) is listed as 3.64 µg/mL (≈ 12.1 µM) and the “increase in contractile cluster incidence” value ([3]; 1 × 10^−8 μg/mL) is listed as ~2 fold. The “concentrations at which cells failed to form contractile clusters” value ([3]; Figure 2) was “above 1 × 10^−3 μg/mL”, the “doses with reduced contractile activity / incidence” value [3] was “above 1 × 10^−8 μg/mL” and the “hiPSC ID50” value [3] was 0.000933 ng/mL.

In the case of CC1(C)S[C@@H]2[C@H](NC(=O)Cc3ccccc3)C(=O)N2[C@H]1C(=O)O [Penicillin G, penicillin G], the Cmax [1] is given as 134.6 [12] μg/mL, the IC50 [2, 4] is given as < 1000 µg/mL and the “hiPSC IC50” value [2, 5] is given as >1000 µg/mL. For the same compound, the “effect on hiPSC cell viability” value ([2]; tested concentration range) was “did not find any reduced cell survival”, the “effect on formation of contractile structures” value [3] was “did not inhibit the formation of contractile structures” and the “doses with reduced contractile activity / incidence” value [3] was > 700 µg/mL. The “hiPSC ID50” value [3] was 739900 ng/mL.

In the case of O=c1[nH]cc(F)c(=O)[nH]1 [5-Fluorouracil, 5-fluorouracil], the Cmax [1] is listed as 0.94 [13] μg/mL, the IC50 [2, 4] is listed as 4.7e-05 µg/mL (≈ 0.000361 µM) and the “concentrations with reductions in hiPSC cell viability” value ([2]; MTT, Figure 4A) is listed as “above 1 × 10^−6 μg/mL”. The “hiPSC IC50” value [2, 5] was 4.726e-05 µg/mL, the “concentrations that negatively impacted the formation of contractile structures” value ([3]; by day 20, Figure 2) was “above 1 × 10^−6 μg/mL” and the “hiPSC ID50” value [3] was 0.00229 ng/mL.
